Patent US12673975B2, “Cyclic peptide, cell scaffold material, cell separating material, and medium” (FUJIFILM Corporation, priority 2019, dated 2026)
Like-named read-outs stand apart in the source and are kept apart here. Starred links: 1 amine or outer side, 2 acyl side, 3 side chain; linkers in the order of their positions; H or OH if unused. Positions of bridges follow the written chain, without caps; N, C: chain ends. Non-standard residues stand in square brackets, D forms with d. Residues, ends and D or L forms follow the SMILES beside them. hCys = N[C@@H](CCS)C(=O)O; Orn = NCCC[C@H](N)C(=O)O; Dab = NCC[C@H](N)C(=O)O; X1 = O=C(C[*:2])[*:1]; X2 = O=C(C[*:1])[*:2]

Assays:
[1] = Evaluation of molecule stability (alkali treatment, residual rate by LC/MS); type: physicochemical; conditions: for Performance evaluation: Stability (residual rate of cyclic peptide after alkali treatment): 500 μM peptide aqueous solution plus equivalent of 1 M sodium hydroxide, 15° C., 3 hours, LC/MS peak area
Method in brief: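 500 μM aqueous cyclic peptide mixed with an equal volume of 1 M NaOH and held 3 h at 15 °C. Residual rate is total LC/MS peak area after treatment relative to untreated (100%), using a C18 column, pH 3 ammonium formate/acetonitrile gradient, 45 °C, ESI±.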

human integrin αvβ5 = human integrin αvβ5 (Homo sapiens, UniProt P06756+P18084); test: Evaluation of integrin binding property (surface plasmon resonance, Biacore 3000, immobilized cyclic peptide)
Sequence of human integrin αvβ5 (P06756 31-1048): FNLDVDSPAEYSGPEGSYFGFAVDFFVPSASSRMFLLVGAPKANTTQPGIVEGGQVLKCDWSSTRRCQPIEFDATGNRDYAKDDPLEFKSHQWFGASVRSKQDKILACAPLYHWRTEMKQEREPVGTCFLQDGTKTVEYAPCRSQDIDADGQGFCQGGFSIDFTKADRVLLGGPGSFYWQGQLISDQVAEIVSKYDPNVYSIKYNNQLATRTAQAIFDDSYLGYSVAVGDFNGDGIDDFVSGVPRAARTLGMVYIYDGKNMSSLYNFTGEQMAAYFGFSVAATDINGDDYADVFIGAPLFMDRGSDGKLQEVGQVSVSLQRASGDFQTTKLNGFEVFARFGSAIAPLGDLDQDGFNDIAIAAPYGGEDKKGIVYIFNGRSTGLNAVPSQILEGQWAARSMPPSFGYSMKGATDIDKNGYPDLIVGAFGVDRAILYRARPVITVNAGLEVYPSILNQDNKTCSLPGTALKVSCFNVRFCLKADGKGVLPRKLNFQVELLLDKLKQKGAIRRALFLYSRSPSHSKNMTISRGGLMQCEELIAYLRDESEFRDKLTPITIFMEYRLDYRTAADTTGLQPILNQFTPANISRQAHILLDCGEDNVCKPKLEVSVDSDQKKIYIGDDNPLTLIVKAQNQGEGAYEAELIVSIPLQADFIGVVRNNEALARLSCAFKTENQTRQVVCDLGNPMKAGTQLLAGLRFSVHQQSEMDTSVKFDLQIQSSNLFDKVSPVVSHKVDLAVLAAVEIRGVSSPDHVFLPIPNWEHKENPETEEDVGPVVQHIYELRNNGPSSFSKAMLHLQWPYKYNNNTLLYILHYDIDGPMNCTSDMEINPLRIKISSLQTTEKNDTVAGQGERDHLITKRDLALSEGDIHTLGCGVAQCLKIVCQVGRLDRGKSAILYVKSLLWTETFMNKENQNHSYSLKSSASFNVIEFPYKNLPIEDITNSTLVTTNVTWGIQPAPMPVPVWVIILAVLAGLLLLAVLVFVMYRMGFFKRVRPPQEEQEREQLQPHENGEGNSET
Sequence of human integrin αvβ5 (P18084 24-799): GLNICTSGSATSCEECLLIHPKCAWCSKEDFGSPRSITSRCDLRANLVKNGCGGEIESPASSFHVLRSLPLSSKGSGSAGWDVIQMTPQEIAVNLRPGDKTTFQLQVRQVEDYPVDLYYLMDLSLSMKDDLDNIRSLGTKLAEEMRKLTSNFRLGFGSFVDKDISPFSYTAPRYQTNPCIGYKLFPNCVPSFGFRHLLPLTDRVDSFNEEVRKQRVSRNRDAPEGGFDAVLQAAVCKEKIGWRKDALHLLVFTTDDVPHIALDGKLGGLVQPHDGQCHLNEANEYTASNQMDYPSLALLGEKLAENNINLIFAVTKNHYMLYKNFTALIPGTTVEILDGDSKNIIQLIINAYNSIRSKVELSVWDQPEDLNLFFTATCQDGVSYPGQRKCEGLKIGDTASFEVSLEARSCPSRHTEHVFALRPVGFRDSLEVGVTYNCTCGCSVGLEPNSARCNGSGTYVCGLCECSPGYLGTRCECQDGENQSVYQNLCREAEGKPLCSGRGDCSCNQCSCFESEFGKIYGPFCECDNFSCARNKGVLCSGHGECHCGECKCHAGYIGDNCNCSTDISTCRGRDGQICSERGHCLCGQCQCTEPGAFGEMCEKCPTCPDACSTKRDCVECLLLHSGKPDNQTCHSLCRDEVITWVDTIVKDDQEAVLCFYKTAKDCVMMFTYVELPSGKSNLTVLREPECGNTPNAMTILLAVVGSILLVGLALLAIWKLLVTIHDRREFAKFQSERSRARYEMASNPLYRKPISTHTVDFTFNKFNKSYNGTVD
Method in brief: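 SPR with cyclic peptide amine-coupled via EDC/NHS to a CM5 chip, blank channel as reference. Integrin αvβ5 at 30, 100, 300 and 1,000 nM injected 10 min at 25 °C in HEPES buffer pH 7.4 with 5 mM MgCl2, 30 min buffer flow, EDTA regeneration; Kd from reference-subtracted signals, graded by category.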

[2] = SPR, 25° C., HEPES buffer with 5 mM magnesium chloride, integrin 30-1,000 nM, read-out: Performance evaluation: Binding activity (dissociation constant between the cyclic peptide and human integrin αvβ5)

Row | SMILES | Kd (human integrin αvβ5; surface plasmon resonance, immobilized cyclic peptide, human integrin αvβ5, read-out: Binding activity (integrin binding property, dissociation constant rank)) [µM] | Kd (human integrin αvβ5; [2]) [µM] | Stability (molecule stability, residual rate of the cyclic peptide rank) ([1]; alkali treatment, residual rate by LC/MS) | Performance evaluation: Stability (residual rate of cyclic peptide after alkali treatment) [1]
1 | CC[C@H](C)[C@@H]1NC(=O)[C@@H](NC(=O)CNC(=O)[C@H](CCCCN)NC(=O)[C@H](CCCCN)NC(=O)[C@@H](N)CCCCN)CCCNC(=O)CSC[C@@H](C(=O)N[C@@H](C)C(=O)O)NC(=O)[C@H](CCCNC(=N)N)NC(=O)[C@H](Cc2ccccc2)NC(=O)[C@H]([C@@H](C)O)NC(=O)[C@H](CC(=O)O)NC(=O)CNC(=O)[C@H](CCCNC(=N)N)NC(=O)[C@@H]2CCCN2C1=O [Cyclic peptide 139, KKKG(Orn(acetyl))IPRGDTFR(C)A] (H-KKKG[Orn]IPRGDTFRCA-OH; linker 5-14 via X1) | < 0.05 |  | C (The residual rate of the cyclic peptide is 30% or more and less than 50%.) | 
2 | CC[C@H](C)[C@@H]1NC(=O)[C@@H](NC(=O)[C@H](CCCCN)NC(=O)[C@H](CCCCN)NC(=O)[C@@H](N)CCCCN)CCSCC(=O)NCC[C@@H](C(=O)N[C@@H](C)C(=O)O)NC(=O)[C@H](Cc2ccccc2)NC(=O)[C@H]([C@@H](C)O)NC(=O)[C@H](CC(=O)O)NC(=O)CNC(=O)[C@H](CCCNC(=N)N)NC(=O)[C@@H]2CCCN2C1=O [Cyclic peptide 60, KKK-(Hcy)-IPRGDTF(Dab(acetyl))A] (H-KKK[hCys]IPRGDTF[Dab]A-OH; linker 4-12 via X2) |  | < 0.05 |  | A (The residual rate of the cyclic peptide is 70% or more.)
3 | CC(C)[C@@H]1NC(=O)[C@@H](NC(=O)CNC(=O)[C@H](CCCCN)NC(=O)[C@H](CCCCN)NC(=O)[C@@H](N)CCCCN)CCSCC(=O)NCC[C@@H](C(=O)N[C@@H](C)C(=O)O)NC(=O)[C@H](C)NC(=O)[C@H](Cc2ccccc2)NC(=O)[C@H](CO)NC(=O)[C@H](CC(=O)O)NC(=O)CNC(=O)[C@H](CCCNC(=N)N)NC(=O)[C@@H]2CCCN2C1=O [Cyclic peptide 98, KKKG-(Hcy)-VPRGDSFA(Dab(acetyl))A] (H-KKKG[hCys]VPRGDSFA[Dab]A-OH; linker 5-14 via X2) |  | < 0.05 |  | A (The residual rate of the cyclic peptide is 70% or more.)
4 | CC(C)[C@@H]1NC(=O)[C@@H](NC(=O)[C@H](C)NC(=O)[C@H](CCCCN)NC(=O)[C@H](CCCCN)NC(=O)[C@@H](N)CCCCN)CCSCC(=O)NCC[C@@H](C(=O)N[C@@H](C)C(=O)O)NC(=O)[C@H](C)NC(=O)[C@H](Cc2ccccc2)NC(=O)[C@H](C)NC(=O)[C@H](CC(=O)O)NC(=O)CNC(=O)[C@H](CCCNC(=N)N)NC(=O)[C@@H]2CCCN2C1=O [Cyclic peptide 91, KKKA-(Hcy)-VPRGDAFA(Dab(acetyl))A] (H-KKKA[hCys]VPRGDAFA[Dab]A-OH; linker 5-14 via X2) |  | < 0.05 |  | A (The residual rate of the cyclic peptide is 70% or more.)

Continued, in another order:

Row | Kd (human integrin αvβ5; surface plasmon resonance, immobilized cyclic peptide, human integrin αvβ5, read-out: Binding activity (integrin binding property, dissociation constant rank)) [µM] | Kd (human integrin αvβ5; [2]) [µM] | SMILES | Stability (molecule stability, residual rate of the cyclic peptide rank) ([1]; alkali treatment, residual rate by LC/MS) | Performance evaluation: Stability (residual rate of cyclic peptide after alkali treatment) [1]
5 |  | < 0.05 | CC[C@H](C)[C@@H]1NC(=O)[C@@H](NC(=O)[C@H](CCCCN)NC(=O)[C@H](CCCCN)NC(=O)[C@@H](N)CCCCN)CCSCC(=O)NCC[C@@H](C(=O)N[C@@H](C)C(=O)O)NC(=O)[C@H](CCCNC(=N)N)NC(=O)[C@H](Cc2ccccc2)NC(=O)[C@H]([C@@H](C)O)NC(=O)[C@H](CC(=O)O)NC(=O)CNC(=O)[C@H](CCCNC(=N)N)NC(=O)[C@@H]2CCCN2C1=O [Cyclic peptide 57, KKK-(Hcy)-IPRGDTFR(Dab(acetyl))A] (H-KKK[hCys]IPRGDTFR[Dab]A-OH; linker 4-13 via X2) |  | A (The residual rate of the cyclic peptide is 70% or more.)
6 |  | 0.1 to 0.2 | C[C@H](NC(=O)[C@@H]1CCNC(=O)CSCC[C@H](NC(=O)[C@H](CCCCN)NC(=O)[C@H](CCCCN)NC(=O)[C@@H](N)CCCCN)C(=O)N2CCC[C@H]2C(=O)N[C@@H](CCCNC(=N)N)C(=O)NCC(=O)N[C@@H](CC(=O)O)C(=O)N[C@@H](CC(N)=O)C(=O)N[C@@H](Cc2ccccc2)C(=O)N[C@@H](CCCNC(=N)N)C(=O)N1)C(=O)O [Cyclic peptide 9, KKK-(Hcy)-PRGDNFR(Dab(acetyl))A] (H-KKK[hCys]PRGDNFR[Dab]A-OH; linker 4-12 via X2) |  | A (The residual rate of the cyclic peptide is 70% or more.)
7 |  | < 0.05 | CC[C@H](C)[C@@H]1NC(=O)[C@@H](NC(=O)[C@H](CCCCN)NC(=O)[C@H](CCCCN)NC(=O)[C@@H](N)CCCCN)CCSCC(=O)NCC[C@@H](C(=O)N[C@@H](C)C(=O)O)NC(=O)[C@H](C)NC(=O)[C@H](C)NC(=O)[C@H](CCCNC(=N)N)NC(=O)[C@H](Cc2ccccc2)NC(=O)[C@H](CC(N)=O)NC(=O)[C@H](CC(=O)O)NC(=O)CNC(=O)[C@H](CCCNC(=N)N)NC(=O)[C@@H]2CCCN2C1=O [Cyclic peptide 19, KKK-(Hcy)-IPRGDNFRAA(Dab(acetyl))A] (H-KKK[hCys]IPRGDNFRAA[Dab]A-OH; linker 4-15 via X2) |  | A (The residual rate of the cyclic peptide is 70% or more.)
8 |  | < 0.05 | CC[C@H](C)[C@@H]1NC(=O)[C@@H](NC(=O)[C@H](CCCCN)NC(=O)[C@H](CCCCN)NC(=O)[C@@H](N)CCCCN)CCSCC(=O)NCC[C@@H](C(=O)O)NC(=O)[C@H](Cc2ccccc2)NC(=O)[C@H](CC(N)=O)NC(=O)[C@H](CC(=O)O)NC(=O)CNC(=O)[C@H](CCCNC(=N)N)NC(=O)[C@@H]2CCCN2C1=O [Cyclic peptide 13, KKK-(Hcy)-IPRGDNF(Dab(acetyl))] (H-KKK[hCys]IPRGDNF[Dab]-OH; linker 4-12 via X2) |  | A (The residual rate of the cyclic peptide is 70% or more.)
9 |  | < 0.05 | C[C@H](NC(=O)[C@@H]1CCNC(=O)CSCC[C@H](NC(=O)[C@H](CCCCN)NC(=O)[C@H](CCCCN)NC(=O)[C@@H](N)CCCCN)C(=O)N[C@@H](Cc2ccc(O)cc2)C(=O)N2CCC[C@H]2C(=O)N[C@@H](CCCNC(=N)N)C(=O)NCC(=O)N[C@@H](CC(=O)O)C(=O)N[C@@H](CC(N)=O)C(=O)N[C@@H](Cc2ccccc2)C(=O)N[C@@H](CCCNC(=N)N)C(=O)N1)C(=O)O [Cyclic peptide 24, KKK-(Hcy)-YPRGDNFR(Dab(acetyl))A] (H-KKK[hCys]YPRGDNFR[Dab]A-OH; linker 4-13 via X2) |  | A (The residual rate of the cyclic peptide is 70% or more.)
10 |  | < 0.05 | C[C@H](NC(=O)[C@@H]1CCNC(=O)CSCC[C@H](NC(=O)[C@H](C)NC(=O)[C@H](CCCCN)NC(=O)[C@H](CCCCN)NC(=O)[C@@H](N)CCCCN)C(=O)N[C@@H]([C@@H](C)O)C(=O)N2CCC[C@H]2C(=O)N[C@@H](CCCNC(=N)N)C(=O)NCC(=O)N[C@@H](CC(=O)O)C(=O)N[C@@H]([C@@H](C)O)C(=O)N[C@@H](Cc2ccccc2)C(=O)N[C@@H](CCCNC(=N)N)C(=O)N1)C(=O)O [Cyclic peptide 75, KKKA-(Hcy)-TPRGDTFR(Dab(acetyl))A] (H-KKKA[hCys]TPRGDTFR[Dab]A-OH; linker 5-14 via X2) |  | A (The residual rate of the cyclic peptide is 70% or more.)
